Results as given in PubChem BioAssay (NCI).
Several values for one entry are separate records, joined by “and”; a condition that tells them apart may be missing. Equal values may be shown once.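 Test compounds were applied to cells in 96-well plates for 48 hours at 5 doses. GI50 marks 50% less growth. TGI denotes the concentration required for complete inhibition of growth.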

Experiments:
Experiment in all cases: NCI tumour cell line growth inhibition, 48 h
DU-145 prostate = tested on: DU-145 prostate
HS 578T breast = tested on: HS 578T breast
A498 renal = tested on: A498 renal
ACHN renal = tested on: ACHN renal
SW-620 colon = tested on: SW-620 colon
UO-31 renal = tested on: UO-31 renal
TK-10 renal = tested on: TK-10 renal
HCT-15 colon = tested on: HCT-15 colon
SNB-19 CNS = tested on: SNB-19 CNS
SF-268 CNS = tested on: SF-268 CNS

Structure (SMILES) | GI50 (DU-145 prostate) | TGI (DU-145 prostate) | GI50 (HS 578T breast) | TGI (HS 578T breast) | GI50 (A498 renal) | TGI (A498 renal) | GI50 (ACHN renal) | TGI (ACHN renal) | GI50 (SW-620 colon) | TGI (SW-620 colon) | GI50 (UO-31 renal) | TGI (UO-31 renal) | GI50 (TK-10 renal) | TGI (TK-10 renal) | GI50 (HCT-15 colon) | TGI (HCT-15 colon) | GI50 (SNB-19 CNS) | TGI (SNB-19 CNS) | GI50 (SF-268 CNS) | TGI (SF-268 CNS)
CN1CCN(Cc2ccc(NC(=O)c3nc4ccc5[nH]ncc5c4c4c3CCC4)cc2C(F)(F)F)CC1 | 0.944 µM | 1.76 µM | 0.833 µM | 1.65 µM | 6.62 µM | 13.4 µM | 0.861 µM | 1.55 µM | 0.975 µM | 2.03 µM | 0.728 µM | 1.38 µM | 0.884 µM | 1.65 µM | 0.87 µM | 1.75 µM | 0.976 µM | 2.11 µM | 7.97 µM | 16.5 µM
CCCCCCCCCCCC[n+]1ccccc1 | 2.21 µM | 11.6 µM | 1.87 µM | 5.87 µM | 1.57 µM | 7.48 µM | 2.09 µM | 14.2 µM | 2 µM | 10.5 µM | 1.72 µM | 11 µM | 0.941 µM | 2.67 µM | 2.61 µM | 16.4 µM | 1.3 µM | 2.94 µM | 1.58 µM | 5.67 µM
CCN(C(=O)CCl)C(C)(C)C(SSSC(c1ccc(Cl)cc1)C(C)(C)N(CC)C(=O)CCl)c1ccc(Cl)cc1 (stereo unspecified) | 11.5 µM | 24.2 µM | 3.36 µM | 18.8 µM | 1.9 µM | 7.42 µM | 4.78 µM | 16.9 µM | 3.85 µM | 14.6 µM | 3.88 µM | 15.3 µM | 2.5 µM | 7.92 µM | 2.84 µM | 12.8 µM | 13.9 µM | 30.3 µM | 10.5 µM | 23.9 µM
O=C1c2ccccc2-c2n[nH]c3cccc1c23 | 13 µM | > 100 µM | 21 µM | > 100 µM | 4.95 µM | 35.4 µM and 52.4 µM |  | > 100 µM |  | > 100 µM | 4.02 µM | > 100 µM and 55.9 µM | 7.44 µM | 52 µM and 76.2 µM | 6.66 µM | > 100 µM |  | > 100 µM | 12 µM | > 100 µM
Cc1ccc(N=Nc2c(N)nn(-c3ccccc3)c2N)cc1 | 3.44 µM | > 100 µM | 1.94 µM | > 31.4 µM | 1.95 µM | > 28.7 µM | 11.6 µM | > 100 µM | 0.493 µM | > 100 µM | 7.97 µM | > 100 µM |  | > 100 µM | 0.612 µM | > 100 µM | 6.23 µM | > 100 µM | 4.7 µM | > 100 µM
S=C=NCc1ccccc1 |  | > 41.2 µM |  | 53.6 µM |  | 14 µM |  | 12.7 µM |  | > 37.3 µM |  | 6.74 µM |  | 12.2 µM |  | 11.1 µM |  | 13.1 µM |  | 13.5 µM
C=CC(=O)N1CCC([C@@H]2CCNc3c(C(N)=O)c(-c4ccc(Oc5ccccc5)cc4)nn32)CC1 | 6.82 µM | 61.3 µM | 14.7 µM | 46.8 µM | 1.67 µM | 9.25 µM | 2.34 µM | > 62.6 µM | 19.2 µM | 46.1 µM | 2.96 µM | > 66.4 µM | 0.385 µM | 7.77 µM | 15.3 µM | 46.5 µM | 16.9 µM | > 100 µM | 9.07 µM | 34.4 µM
N#Cc1cccc(/C=C(/C(=O)c2ccccc2)c2ccccc2)c1 | 3.36 µM | 10.2 µM | 2.9 µM | 33.6 µM | 4.08 µM | 17.2 µM | 2.47 µM | 5.76 µM | 3.28 µM | 15.5 µM | 5.31 µM | 19 µM | 5.75 µM | 19.9 µM | 3.4 µM | 22.8 µM | 5.07 µM | 19.9 µM | 4.3 µM | 17.2 µM
CC1(C)CC(OCCCC[P+](c2ccccc2)(c2ccccc2)c2ccccc2)CC(C)(C)N1O | 0.409 µM | 7.75 µM | 0.229 µM | 1.03 µM | 0.644 µM | 3.89 µM | 2.39 µM | 7.28 µM | 0.337 µM | 4.86 µM | 2.66 µM | 8.29 µM | 0.361 µM | 2.36 µM | 2.78 µM | 9.12 µM | 0.317 µM | 2.2 µM | 0.412 µM | 1.88 µM
C[C@]12CCC3c4ccc(O)cc4CCC3C1Cc1ccc(O)cc12 (stereo partly specified) | 11.5 µM | 28.5 µM | 5.87 µM | 42.6 µM | 6.18 µM | 19.7 µM | 10.4 µM | 22.3 µM | 3.7 µM | 14.9 µM | 11.8 µM | 28.7 µM | 13.6 µM | 40.2 µM | 4.51 µM | 19 µM | 10.6 µM | 22.7 µM | 11.4 µM | 44.2 µM
COc1ccc2c(c1)sc1nc(-c3ccccc3)c(-c3ccc(O)c(OC)c3)n12 | 35.4 µM | > 100 µM | > 100 µM | > 100 µM | 28.3 µM | > 100 µM | 38.9 µM | > 100 µM | 5.15 µM | > 100 µM | 81 µM | > 100 µM | > 100 µM | > 100 µM | 4.03 µM | > 100 µM | 32.5 µM | > 100 µM | 28.8 µM | > 100 µM
CCN(CC)CCCOc1cc(O)c2c(=O)cc(-c3ccccc3)oc2c1 | 10.2 µM | 21.8 µM | 10.2 µM | 26 µM | 10.2 µM | 22.4 µM | 6.16 µM | 19 µM | 6.27 µM | 19.3 µM | 3.74 µM | 15.9 µM | 10.3 µM | 25.3 µM | 3.94 µM | 14.6 µM | 12.1 µM | 24.5 µM | 10.1 µM | 22.9 µM
COc1ccc(/C=C/C(=O)c2ccc3cc(OC)c(OC)cc3c2)cc1OC | 4.01 µM | 15.7 µM | 3.77 µM | 41.2 µM | 2.66 µM | 23.1 µM | 3.81 µM | > 100 µM | 3.32 µM | 14.2 µM | 2.85 µM | 12.7 µM | 3.17 µM | 9.97 µM | 2.69 µM | 40.8 µM | 5.29 µM | 29.8 µM | 4.45 µM | 22.6 µM
NC(CSc1nc2ccccn2c1[N+](=O)[O-])C(=O)O (stereo unspecified) |  | > 100 µM |  | > 100 µM |  | > 100 µM |  | > 100 µM |  | > 100 µM |  | 8.54 µM |  | > 100 µM |  | > 100 µM |  | > 100 µM |  | > 100 µM
COC(=O)c1ccc2c(c1)C(=O)c1c-2n(CCCN)c(=O)c2cc([N+](=O)[O-])ccc12 | < 0.0159 µM | 0.391 µM | 0.422 µM | 1.15 µM | 0.116 µM | 1.44 µM | < 0.01 µM | 0.204 µM | < 0.01 µM | 1.27 µM | < 0.0137 µM | < 0.0405 µM | 1.05 µM | 2.92 µM | 0.0625 µM | 0.56 µM | < 0.0205 µM | 1.87 µM | < 0.0177 µM | 1.4 µM
COc1cc(Cn2ccc3c2-c2oncc2CC3)cc(OC)c1 | 3.99 µM | > 100 µM | 2.38 µM | 12.2 µM | 1.16 µM | 6.99 µM | 5.54 µM | 97.9 µM | 2.18 µM | > 100 µM | 6.09 µM | 41.6 µM | 8.04 µM | > 100 µM | 3.03 µM | > 100 µM | 5.89 µM | > 100 µM | 10.1 µM | > 100 µM
